Experimental data reported in the Deep4Chem optical property database.
Where “and” joins values, the source holds several entries; their conditions need not be identical. Equal entries are not always repeated.

Experiment: photoluminescence quantum yield (fraction); solvent given as SMILES

## CCCCCCCCCCCCOc1ccc(C#Cc2ccc(C#Cc3ccc(OCCCCCCCCCCCC)c(OCCCCCCCCCCCC)c3)c3nc4c5ccccc5c5ccccc5c4nc23)cc1OCCCCCCCCCCCC
In C1CCOC1
  photoluminescence quantum yield: 0.23
In Cc1ccccc1
  photoluminescence quantum yield: 0.19
In ClCCl
  photoluminescence quantum yield: 0.26

## C[Si](C)(C)C#Cc1ccc(C#C[Si](C)(C)C)c2ccccc12
In C1CCCCC1
  photoluminescence quantum yield: 0.85

## C1=Cc2ccccc2C(=Cc2ccc(-c3ccc(C=C4c5ccccc5C=Cc5ccccc54)cc3)cc2)c2ccccc21
In C1CCOC1
  photoluminescence quantum yield: 0.00012

## CCCCCCN1C(=O)c2cccc3cc(/N=C\c4nc5ccccc5s4)cc(c23)C1=O
In ClC(Cl)Cl
  photoluminescence quantum yield: 0.002

## CSC1=C(C)C2=C(c3ccc(C)cc3)c3c(C)c(Cl)c(C)n3[B-](F)(F)[N+]2=C1C
In C1CCOC1
  photoluminescence quantum yield: 0.07

## CCC1(CC)c2cc(/C=C/c3cc(C#N)c(/C=C/c4ccc5c(c4)C(CC)(CC)c4cc(N6c7ccccc7Sc7ccccc76)ccc4-5)cc3C#N)ccc2-c2ccc(N3c4ccccc4Sc4ccccc43)cc21
In C1CCOC1
  photoluminescence quantum yield: 0.01
In CCCCCC
  photoluminescence quantum yield: 0.11
In Cc1ccccc1
  photoluminescence quantum yield: 0.06
In ClCCl
  photoluminescence quantum yield: 0.01

## CCCCCCCCN1c2ccccc2Sc2cc(/C=C/c3ccc(N(c4ccc(/C=C/c5ccc6c(c5)Sc5ccccc5N6CCCCCCCC)cc4)c4ccc(/C=C/c5ccc(/C=C/c6ccc(N(c7ccc(/C=C/c8ccc(N(c9ccccc9)c9ccccc9)cc8)cc7)c7ccc(/C=C/c8ccc(N(c9ccccc9)c9ccccc9)cc8)cc7)cc6)c6nsnc56)cc4)cc3)ccc21
In C1CCOC1
  photoluminescence quantum yield: 0.031
In CCOC(C)=O
  photoluminescence quantum yield: 0.062
In CN(C)C=O
  photoluminescence quantum yield: 0.001
In Cc1ccccc1
  photoluminescence quantum yield: 0.349
In ClC(Cl)Cl
  photoluminescence quantum yield: 0.06
In ClCCl
  photoluminescence quantum yield: 0.003

## Cc1cc(C)c(B(c2c(C)cc(C)cc2C)N2c3ccccc3C(c3ccccc3)(c3ccccc3)c3ccccc32)c(C)c1
In C1CCCCC1
  photoluminescence quantum yield: 0.732
In Cc1ccccc1
  photoluminescence quantum yield: 0.974
In ClCCl
  photoluminescence quantum yield: 0.891

## O=C1/C(=C\c2ccc(N(c3ccccc3)c3ccccc3)cc2)S(=O)(=O)c2ccccc21
In C1CCOC1
  photoluminescence quantum yield: 0.037
In C1COCCO1
  photoluminescence quantum yield: 0.324
In CC#N
  photoluminescence quantum yield: 0.002
In CC(C)=O
  photoluminescence quantum yield: 0.003
In CCOC(C)=O
  photoluminescence quantum yield: 0.036
In CN(C)C=O
  photoluminescence quantum yield: 0.024
In CO
  photoluminescence quantum yield: 0.021
In CS(C)=O
  photoluminescence quantum yield: 0.032
In Cc1ccccc1
  photoluminescence quantum yield: 0.559
In ClC(Cl)Cl
  photoluminescence quantum yield: 0.142
In ClCCl
  photoluminescence quantum yield: 0.022

## Cc1ccc(C#Cc2c3cc4ccccc4cc3c(C#C[Si](C(C)C)(C(C)C)C(C)C)c3cc4ccccc4cc23)cc1
In ClCCl
  photoluminescence quantum yield: 0.1

## CCCCC(CC)COc1ccc2nc(-c3ccc(-c4cccs4)s3)sc2c1 (stereo unspecified)
In ClCCl
  photoluminescence quantum yield: 0.2

## CCOC(=O)C1=C(C(=O)OCC)C2(c3ccccc3-c3ccccc32)[C@@H](c2ccccc2)C=C2c3cc(OC)c(OC)cc3CCN21
In ClCCl
  photoluminescence quantum yield: 0.00154

## Clc1ccc(/C=C/c2nc3ccccc3o2)cc1
In C1CCCCC1
  photoluminescence quantum yield: 0.14
In CO
  photoluminescence quantum yield: 0.02

## CCCCN1/C(=C/C=C/C2=[N+](C)c3ccccc3C2(C)C)C(C)(C)c2cc(Br)ccc21
In CS(C)=O
  photoluminescence quantum yield: 0.12

## COc1ccc(N(c2ccccc2)c2ccc(OC)cc2)cc1
In Cc1ccccc1
  photoluminescence quantum yield: 0.03

## CC1=[N+]2C(=C(c3ccc(C(=C(c4ccccc4)c4ccccc4)c4ccccc4)cc3)c3ccc(C)n3[B-]2(F)F)C=C1
In C1CCOC1
  photoluminescence quantum yield: 0.038

## O=c1c2ccccc2[nH]c2ccccc12
In CS(C)=O
  photoluminescence quantum yield: 0.75

## COc1ccc(-c2nc(-c3ccc(-c4nc(-c5ccc(OC)cc5)c(-c5ccc(OC)cc5)[nH]4)s3)[nH]c2-c2ccc(OC)cc2)cc1
In CC#N
  photoluminescence quantum yield: 0.62

## F[B-]1(F)n2c(nc(-c3ccccc3)c2-c2ccccc2)-c2cccc[n+]21
In C1CCCCC1
  photoluminescence quantum yield: 0.34
In C1CCOC1
  photoluminescence quantum yield: 0.17
In C1COCCO1
  photoluminescence quantum yield: 0.26
In CC#N
  photoluminescence quantum yield: 0.1 and 0.19
In CCCCCC
  photoluminescence quantum yield: 0.22 and 0.3
In CO
  photoluminescence quantum yield: 0.12 and 0.1
In ClC(Cl)Cl
  photoluminescence quantum yield: 0.23 and 0.3
In ClCCl
  photoluminescence quantum yield: 0.15

## COc1ccccc1
In C1CCCCC1
  photoluminescence quantum yield: 0.36

## Cc1ccc(-c2nc(-c3ccccc3O)[nH]c2-c2ccc(C)cc2)cc1
In CO
  photoluminescence quantum yield: 0.28
